Molecules are shown by their SMILES.

The values below come from patent US10844074B2, “Heterocycle compounds and uses thereof” (ZHEJIANG JIANFENG-YIEN BIOTECHNOLOGY CO., LTD., priority 2015, dated 2020).

For the assay, the target named is BTK (Homo sapiens, UniProt Q06187). Kind of assay: BTK Enzyme Assay. It counts as biochemical. Conditions: 1 uM compound; read-out: BTK (% inh @ 1 uM). The protocol: The following TABLE II lists compounds representative of the invention and their activity in BTK assays. In these assays, the following grading was used: A: >30% inhibition @1 μM; B: <30% inhibition @1 μM.
Chain of BTK (Q06187 whole entry): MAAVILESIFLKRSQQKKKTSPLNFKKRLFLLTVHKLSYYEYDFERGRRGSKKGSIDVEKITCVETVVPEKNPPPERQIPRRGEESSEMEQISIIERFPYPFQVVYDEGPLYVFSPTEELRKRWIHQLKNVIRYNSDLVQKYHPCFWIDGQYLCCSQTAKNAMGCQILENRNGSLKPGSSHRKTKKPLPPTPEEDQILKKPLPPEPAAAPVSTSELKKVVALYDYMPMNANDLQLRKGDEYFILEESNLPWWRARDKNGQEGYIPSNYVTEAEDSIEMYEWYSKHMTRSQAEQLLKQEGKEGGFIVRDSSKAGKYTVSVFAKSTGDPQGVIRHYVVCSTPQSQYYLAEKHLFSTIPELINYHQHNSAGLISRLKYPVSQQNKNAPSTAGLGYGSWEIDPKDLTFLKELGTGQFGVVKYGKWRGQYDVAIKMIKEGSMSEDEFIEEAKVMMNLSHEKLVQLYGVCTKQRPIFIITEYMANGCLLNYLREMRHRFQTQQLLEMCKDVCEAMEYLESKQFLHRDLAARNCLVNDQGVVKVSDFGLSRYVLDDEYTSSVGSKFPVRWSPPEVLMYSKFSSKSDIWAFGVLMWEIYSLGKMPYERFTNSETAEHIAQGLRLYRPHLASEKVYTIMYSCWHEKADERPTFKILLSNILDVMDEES
Consider `C=CC(=O)Nc1cc(N(C)c2nc(-c3c[nH]c4ccccc34)c3sccc3n2)c(OC)cc1N(C)CCN(C)C` [Compound 53, N-[2-[2-(dimethylamino)ethyl-methyl-amino]-5-[[4-(1H-indol-3-yl)thieno[3,2-d]pyrimidin-2-yl]-methyl-amino]-4-methoxy-phenyl]prop-2-enamide], for which the inhibition at 1 µM is over 30%. In the case of `C=CC(=O)Nc1cc(N(C)c2nc(-c3cn(C)c4ccccc34)c3sccc3n2)c(OC)cc1N(C)CCN(C)C` [Compound 54, N-[2-[2-(dimethylamino)ethyl-methyl-amino]-4-methoxy-5-[methyl-[4-(1-methylindol-3-yl)thieno[3,2-d]pyrimidin-2-yl]amino]phenyl]prop-2-enamide], the inhibition at 1 µM was under 30%. The same measure for `C=CC(=O)Nc1cc(Nc2nc(-c3ccccc3)c3ccsc3n2)c(OC)cc1N1CCN(C)CC1` [Compound 42, N-[4-methoxy-2-(4-methylpiperazin-1-yl)-5-[(4-phenylthieno[2,3-d]pyrimidin-2-yl)amino]phenyl]prop-2-enamide]: under 30%; for `C=CC(=O)Nc1cc(Nc2nc(-c3c[nH]c4ccccc34)c3sccc3n2)c(OC)cc1N1CCC(NC)CC1` [Compound 3, N-[5-[[4-(1H-indol-3-yl)thieno[3,2-d]pyrimidin-2-yl]amino]-4-methoxy-2-[4-(methylamino)-1-piperidyl]phenyl]prop-2-enamide]: over 30%.

Turning to `C=CC(=O)Nc1cc(NC2=NC(c3cccc(N)c3)C3SC=CC3=N2)c(OC)cc1N1CCN(C)CC1` (stereo not shown) [Compound 19, N-[5-[[4-(3-aminophenyl)-4,4a-dihydrothieno[3,2-d]pyrimidin-2-yl]amino]-4-methoxy-2-(4-methylpiperazin-1-yl)phenyl]prop-2-enamide], the inhibition at 1 µM is under 30%. Regarding `C=CC(=O)Nc1cc(Nc2nc(-c3cc[nH]c3)c3ccsc3n2)c(OC)cc1N1CCN(C)CC1` [Compound 47, N-[4-methoxy-2-(4-methylpiperazin-1-yl)-5-[[4-(1H-pyrrol-3-yl)thieno[2,3-d]pyrimidin-2-yl]amino]phenyl]prop-2-enamide], the inhibition at 1 µM was under 30%.

Consider `C=CC(=O)Nc1cc(NC2=NC(c3cccc(N(C)C)c3)C3SC=CC3=N2)c(OC)cc1OCCN(C)C` (stereo not shown) [Compound 12, N-[2-[2-(dimethylamino)ethoxy]-5-[[4-[3-(dimethylamino)phenyl]-4,4a-dihydrothieno[3,2-d]pyrimidin-2-yl]amino]-4-methoxy-phenyl]prop-2-enamide], for which the inhibition at 1 µM was over 30%. With `C=CC(=O)Nc1cc(Nc2nc(-c3cn(C)c4ccccc34)c3sccc3n2)c(OC)cc1N(C)C` [Compound 38, N-[2-(dimethylamino)-4-methoxy-5-[[4-(1-methylindol-3-yl)thieno[3,2-d]pyrimidin-2-yl]amino]phenyl]prop-2-enamide], the inhibition at 1 µM is over 30%. On to `C=CC(=O)Nc1cc(Nc2nc(-c3ccn(C)c3)c3ccsc3n2)c(OC)cc1N1CCN(C)CC1` [Compound 46, N-[4-methoxy-2-(4-methylpiperazin-1-yl)-5-[[4-(1-methylpyrrol-3-yl)thieno[2,3-d]pyrimidin-2-yl]amino]phenyl]prop-2-enamide], for which the inhibition at 1 µM was over 30%. The same measure for `C=CC(=O)Nc1cc(NC2=NC(c3cccc(NC)c3)C3SC=CC3=N2)c(OC)cc1OCCN1CCCCC1` (stereo not shown) [Compound 15, N-[4-methoxy-5-[[4-[3-(methylamino)phenyl]-4,4a-dihydrothieno[3,2-d]pyrimidin-2-yl]amino]-2-[2-(1-piperidyl)ethoxy]phenyl]prop-2-enamide]: over 30%. As to `C=CC(=O)Nc1cc(NC2=NC(c3cccc(OC)c3)C3SC=CC3=N2)c(OC)cc1N1CCC(N(C)C)CC1` (stereo not shown) [Compound 20, N-[2-[4-(dimethylamino)-1-piperidyl]-4-methoxy-5-[[4-(3-methoxyphenyl)-4,4a-dihydrothieno[3,2-d]pyrimidin-2-yl]amino]phenyl]prop-2-enamide], the inhibition at 1 µM is under 30%.

As for `C=CC(=O)Nc1cc(NC2=NC(c3cccc(N(C)C)c3)C3SC=CC3=N2)c(OC)cc1N(C)C` (stereo not shown) [Compound 4, N-[2-(dimethylamino)-5-[[4-[3-(dimethylamino)phenyl]-4,4a-dihydrothieno[3,2-d]pyrimidin-2-yl]amino]-4-methoxy-phenyl]prop-2-enamide], the inhibition at 1 µM was over 30%. For `C=CC(=O)Nc1cc(N(C)c2nc(-c3c[nH]c4ccccc34)c3sccc3n2)c(OC)cc1N1CCOCC1` [Compound 51, N-[5-[[4-(1H-indol-3-yl)thieno[3,2-d]pyrimidin-2-yl]-methyl-amino]-4-methoxy-2-morpholino-phenyl]prop-2-enamide] the value was under 30%; for `C=CC(=O)Nc1cc(Nc2nc(-c3c[nH]c4ccccc34)c3sccc3n2)c(OC)cc1N1CCOCC1` [Compound 23, N-[5-[[4-(1H-indol-3-yl)thieno[3,2-d]pyrimidin-2-yl]amino]-4-methoxy-2-morpholino-phenyl]prop-2-enamide], over 30%; for `C=CC(=O)Nc1cc(Nc2nc(-c3ccn(C)c3)c3sccc3n2)c(OC)cc1N1CCN(C)CC1` [Compound 48, N-[4-methoxy-2-(4-methylpiperazin-1-yl)-5-[[4-(1-methylpyrrol-3-yl)thieno[3,2-d]pyrimidin-2-yl]amino]phenyl]prop-2-enamide], over 30%. Take `C=CC(=O)Nc1cc(Nc2nc(-c3c[nH]c4ccccc34)c3sccc3n2)c(OC)cc1N1CCN(C)CC1` [Compound 21, N-[5-[[4-(1H-indol-3-yl)thieno[3,2-d]pyrimidin-2-yl]amino]-4-methoxy-2-(4-methylpiperazin-1-yl)phenyl]prop-2-enamide]: the inhibition at 1 µM was over 30%.

Regarding `C=CC(=O)Nc1cc(Nc2nc(-c3cn(C)c4ccccc34)c3sccc3n2)c(OC)cc1N1CCN(C)CC1` [Compound 22, N-[4-methoxy-5-[[4-(1-methylindol-3-yl)thieno[3,2-d]pyrimidin-2-yl]amino]-2-(4-methylpiperazin-1-yl)phenyl]prop-2-enamide], the inhibition at 1 µM was over 30%. The same measure for `C=CC(=O)Nc1cc(Nc2nc(-c3ccc(NC)cc3)c3sccc3n2)c(OC)cc1N(C)CC` [Compound 39, N-[2-[ethyl(methyl)amino]-4-methoxy-5-[[4-[4-(methylamino)phenyl]thieno[3,2-d]pyrimidin-2-yl]amino]phenyl]prop-2-enamide]: over 30%; for `C=CC(=O)Nc1cc(Nc2nc(-c3ccc(NC)cc3)c3sccc3n2)c(OC)cc1N1CCN(C)CC1` [Compound 25, N-[4-methoxy-5-[[4-[4-(methylamino)phenyl]thieno[3,2-d]pyrimidin-2-yl]amino]-2-(4-methylpiperazin-1-yl)phenyl]prop-2-enamide]: under 30%. The same measure for `C=CC(=O)Nc1cc(NC2=NC(c3cccc(NC)c3)C3SC=CC3=N2)c(OC)cc1N1CCN(C)CC1` (stereo not shown) [Compound 7, N-[4-methoxy-5-[[4-[3-(methylamino)phenyl]-4,4a-dihydrothieno[3,2-d]pyrimidin-2-yl]amino]-2-(4-methylpiperazin-1-yl)phenyl]prop-2-enamide]: over 30%; for `C=CC(=O)Nc1cc(Nc2nc(-c3cc[nH]c3)c3sccc3n2)c(OC)cc1N1CCN(C)CC1` [Compound 49, N-[4-methoxy-2-(4-methylpiperazin-1-yl)-5-[[4-(1H-pyrrol-3-yl)thieno[3,2-d]pyrimidin-2-yl]amino]phenyl]prop-2-enamide]: over 30%; for `C=CC(=O)Nc1cc(NC2=NC(c3cccc(N(C)C)c3)C3SC=CC3=N2)c(OC)cc1N1CCC(C(=O)N(C)C)CC1` (stereo not shown) [Compound 16, 1-[4-[[4-[3-(dimethylamino)phenyl]-4,4a-dihydrothieno[3,2-d]pyrimidin-2-yl]amino]-5-methoxy-2-(prop-2-enoylamino)phenyl]-N,N-dimethyl-piperidine-4-carboxamide]: over 30%.

Take `C=CC(=O)Nc1cc(NC2=NC(c3cccc(OC)c3)C3C(=N2)C=CN3C)c(OC)cc1N1CCC(N(C)C)CC1` (stereo not shown) [Compound 28, N-[2-[4-(dimethylamino)-1-piperidyl]-4-methoxy-5-[[4-(3-methoxyphenyl)-5-methyl-4,4a-dihydropyrrolo[3,2-d]pyrimidin-2-yl]amino]phenyl]prop-2-enamide]: the inhibition at 1 µM is under 30%.

`C=CC(=O)Nc1cc(Nc2nc(-c3ccccc3NC)c3sccc3n2)c(OC)cc1N1CCN(C)CC1` [Compound 29, N-[4-methoxy-5-[[4-[2-(methylamino)phenyl]thieno[3,2-d]pyrimidin-2-yl]amino]-2-(4-methylpiperazin-1-yl)phenyl]prop-2-enamide]: the inhibition at 1 µM was under 30%. The same measure for `C=CC(=O)Nc1cc(Nc2nc(-c3ccccc3)c3ccsc3n2)c(OC)cc1N(C)CC` [Compound 40, N-[2-[ethyl(methyl)amino]-4-methoxy-5-[(4-phenylthieno[2,3-d]pyrimidin-2-yl)amino]phenyl]prop-2-enamide]: under 30%; for `C=CC(=O)Nc1cc(Nc2nc(-c3cccc4cc[nH]c34)c3sccc3n2)c(OC)cc1N1CCN(C)CC1` [Compound 45, N-[5-[[4-(1H-indol-7-yl)thieno[3,2-d]pyrimidin-2-yl]amino]-4-methoxy-2-(4-methylpiperazin-1-yl)phenyl]prop-2-enamide]: under 30%. The same measure for `C=CC(=O)Nc1cc(NC2=NC(c3cccc(N(C)C)c3)C3SC=CC3=N2)c(OC)cc1N(C)CCN1CCOCC1` (stereo not shown) [Compound 8, N-[5-[[4-[3-(dimethylamino)phenyl]-4,4a-dihydrothieno[3,2-d]pyrimidin-2-yl]amino]-4-methoxy-2-[methyl(2-morpholinoethyl)amino]phenyl]prop-2-enamide]: over 30%; for `C=CC(=O)Nc1cc(Nc2nc(-c3cccc4ccn(C)c34)c3sccc3n2)c(OC)cc1N1CCN(C)CC1` [Compound 44, N-[4-methoxy-5-[[4-(1-methylindol-7-yl)thieno[3,2-d]pyrimidin-2-yl]amino]-2-(4-methylpiperazin-1-yl)phenyl]prop-2-enamide]: over 30%.
